Measurements as given in patent US20220151989A1, “LIPOIC ACID PRODRUG” (SANTEN PHARMACEUTICAL CO., LTD., priority 2019, published 2022).
“And” between values parts separate entries of the source, which are not always exact repeats. Equal entries are not always repeated.

Key:
[1] = test system: anterior segment of the eye; experiment: Ocular Irritation Test-1: modified Draize test and slit lamp examination; assay type: in vivo, Japanese White rabbit; set-up: key to Irritation Score of anterior segment of the eye: Palpebral conjunctival edema / Irritation Score of anterior segment of the eye: Bulbar conjunctival hyperemia / Irritation Score of anterior segment of the eye: Hyperemia of nictitating membrane / Irritation Score of anterior segment of the eye: Discharge / Slit lamp observation / Irritation Score of anterior segment of the eye: Flare of palpebral conjunctiva: +0.5: very slight; +1: slight; +2: moderate; +3: severe; —: No noteworthy findings; conditions: for slit lamp examination / irritation in anterior segment of the eye: 0.03% and 0.3% eye drops; for irritation in anterior segment of the eye: modified Draize test; for Irritation Score of anterior segment of the eye: Bulbar conjunctival hyperemia / Irritation Score of anterior segment of the eye: Discharge / Irritation Score of anterior segment of the eye: Flare of palpebral conjunctiva / Irritation Score of anterior segment of the eye: Hyperemia of nictitating membrane / Irritation Score of anterior segment of the eye: Palpebral conjunctival edema / Slit lamp observation: 50 μL/eye ten times at 30 minute intervals, 1 hour after last instillation
Experimental: 0.03% (w/v) and 0.3% (w/v) Compound 1 eye drops, and 0.03% (w/v) and 0.3% (w/v) Compound 3 eye drops were prepared in the same manner as Preparation of Test sample in Pharmacological test-2. Vehicle A was used for a vehicle group. 0.03% (w/v) and 0.3% (w/v) Compound 1 eye drops, 0.03% (w/v) and 0.3% (w/v) Compound 3 eye drops, and the vehicle were each instilled into the left eye of a Japanese White rabbit at a dose of 50 μL/eye with pipette ten times at 30 minute intervals. One hour after the final instillation, ocular irritation of anterior segment of the eye was evaluated according to the modified Draize test, and a slit lamp examination was performed. The contralateral eye was untreated. The ocular irritation of anterior segment of the eye was scored according to the following criteria: +0.5: very slight; +1: slight; +2: moderate; +3: severe

lens elasticity [2] = experiment: Pharmacological Test-4: lens elasticity, once-daily instillation for 2 weeks; assay type: in vivo, C57BL/6J mice; conditions: for Lens elasticity improvement: once per day for 14 days, 8-month-old mice
Experimental: The effect of once-daily instillation of Compound 1 for 2 weeks on the lens elasticity was examined.
Compound 1 was stirred with the addition of Vehicle A to give a 0.3% (w/v) emulsion, and the emulsion was diluted with the diluent to give a 0.1% (w/v) emulsion. Further, the resulting 0.1% (w/v) emulsion was diluted with the diluent to give a 0.03% (w/v) emulsion. Further, the resulting 0.03% (w/v) emulsion was diluted with the diluent to give a 0.01% (w/v) emulsion.
EV06 was sonicated with the addition of Vehicle A to give a 1.5% (w/v) solution, which was used for comparison to Compound 1 sample.
1) Each test sample (2.5 μL/eye) was instilled into the right eye of 8-month-old C57BL/6J mice with a Pipetman once per day (around 9:00) for 14 days. 2) After the final instillation, the mice were euthanized by carbon dioxide inhalation, and then the eyeballs were extracted and rinsed with Hank's balanced salt solution (HESS). 3) The sclera near the optic nerve was cut with a razor, the lens was removed through the incision, and the removed lens was immersed in HESS. 4) The lens was placed on a glass slide, and an all-in-one fluorescence microscope BZ-9000 (Keyence) was used to capture an image of the lens (Image a). 5) Next, one cover glass (Corning^(registered trade mark) 22×22 mm Square) was placed on the lens, and an image in which the thickness of the lens changed due to the weight was similarly captured (Image b). 6) A change in the lens diameter was calculated from the following Equation 1 wherein the lens diameter of Image a is subtracted from the lens diameter of Image b. Then, the lens elasticity improvement of each sample group compared with the vehicle control group was calculated from Equation 2 described below. The mean value of the vehicle control group was based on 5 eyes, the mean value of each of the sample groups of compound 1 and EV06 was based on 10 eyes.
(§1) Change in lens diameter=Lens diameter in Image b of each test sample−Lens diameter in Image a of each test sample (Equation 1)
(§2) Lens elasticity improvement of each sample group=Mean change in lens diameter of each Test sample group−Mean change in lens diameter of Vehicle control group (Equation 2)

lens elasticity [3] = experiment: Pharmacological Test-5: lens elasticity, once-daily instillation for 1 week; assay type: in vivo, C57BL/6J mice
Experimental: The effect of once-daily instillation of Compound for 1 week on the lens elasticity was examined.
Compound 1 was stirred with the addition of Vehicle C to give a 0.1% (w/v) solution. A 0.03% […] solution and a 0.01% (w/v) solution were prepared in the same manner.
1) Each test sample (2.5 μL/eye) was instilled into both eyes of 9-month-old C57BL/6J mice with a Pipetman once per day (around 9:00) for 7 days. 2) After the final instillation, the mice were euthanized by carbon dioxide inhalation, and then the eyeballs were extracted and rinsed with Hank's balanced salt solution (HBSS). 3) The sclera near the optic nerve was cut with a razor, the lens was removed through the incision, and the removed lens was immersed in HESS. 4) The lens was placed on a glass slide, and an all-in-one fluorescence microscope BZ-9000 (Keyence) was used to capture an image of the lens (Image a). 5) Next, one cover glass (Corning^(registered trade mark) 22×22 mm Square) was placed on the lens, and an image in which the thickness of the lens changed due to the weight was similarly captured (Image b). 6) A change in the lens diameter was calculated from the following Equation 1 wherein the lens diameter of Image a is subtracted from the lens diameter of Image b. Then, the lens elasticity improvement of each sample group compared with the vehicle control group was calculated from Equation 2 described below. The mean value of the vehicle control group was based on 10 eyes, the mean values of Compound 1 sample group were based on 10 eyes.
as §1, §2

Row | Compound | slit lamp examination [1] | irritation in anterior segment of the eye [1] | Irritation Score of anterior segment of the eye: Bulbar conjunctival hyperemia ([1]; 0.03% eye drop) | Irritation Score of anterior segment of the eye: Discharge ([1]; 0.03% eye drop) | Irritation Score of anterior segment of the eye: Flare of palpebral conjunctiva ([1]; 0.03% eye drop) | Irritation Score of anterior segment of the eye: Hyperemia of nictitating membrane ([1]; 0.03% eye drop) | Irritation Score of anterior segment of the eye: Palpebral conjunctival edema ([1]; 0.03% eye drop) | Slit lamp observation ([1]; 0.03% eye drop) | Irritation Score of anterior segment of the eye: Bulbar conjunctival hyperemia ([1]; 0.3% eye drop) | Irritation Score of anterior segment of the eye: Discharge ([1]; 0.3% eye drop) | Irritation Score of anterior segment of the eye: Flare of palpebral conjunctiva ([1]; 0.3% eye drop) | Irritation Score of anterior segment of the eye: Hyperemia of nictitating membrane ([1]; 0.3% eye drop) | Irritation Score of anterior segment of the eye: Palpebral conjunctival edema ([1]; 0.3% eye drop) | Slit lamp observation ([1]; 0.3% eye drop) | also measured
1 | O=C(CCCC[C@@H]1CCSS1)OCCN1CCN(CCO)CC1 [Compound 3] | No abnormalities were observed | low | +1 | +1 | +1 | +1 | +0.5 | — | +1 and +2 | +1 | +1 | +1 | +1 and +0.5 | — | 
2 | CC(C)=CCOC(=O)CCCC[C@@H]1CCSS1 [Compound 1, 3-Methyl-2-buten-1-yl (R)-5-(1,2-dithiolan-3-yl)pentanoate] | No abnormalities were observed | No irritation was observed | — | — | — | — | — | — | — | — | — | — | — | — | Lens elasticity improvement (lens elasticity [2]; 0.01% (w/v) emulsion): 12.2 μm; Lens elasticity improvement (lens elasticity [2]; 0.03% (w/v) emulsion): 33.8 μm; lens elasticity improvement compared with 1.5% EV06 group (lens elasticity [2]; 0.03%, 0.1% and 0.3% sample groups, instilled once-daily): excellent results compared to 1.5% EV06 group; Lens elasticity improvement (lens elasticity [2]; 0.1% (w/v) emulsion): 34.1 μm; Lens elasticity improvement (lens elasticity [2]; 0.3% (w/v) emulsion): 39.8 μm; Lens elasticity improvement (lens elasticity [3]; 0.01% (w/v) solution in Vehicle C, both eyes, once per day for 7 days, 9-month-old mice): 10.6 μm; Lens elasticity improvement (lens elasticity [3]; 0.03% solution in Vehicle C, both eyes, once per day for 7 days, 9-month-old mice): 20.3 μm; Lens elasticity improvement (lens elasticity [3]; 0.1% (w/v) solution in Vehicle C, both eyes, once per day for 7 days, 9-month-old mice): 60.1 μm; Lens elasticity improvement (lens elasticity [3]; concentration of 0.1%, once-daily for 1 week): potent lens elasticity improvement
3 | C[N+](C)(C)CCOC(=O)CCCC[C@@H]1CCSS1.[Cl-] [EV06, Lipoic acid choline ester, reference compound] |  |  |  |  |  |  |  |  |  |  |  |  |  |  | Lens elasticity improvement (lens elasticity [2]; 1.5% (w/v) solution in Vehicle A): 5.8 μm
